# Measurements: PubChem BioAssay (NCI)
# Where “and” joins values, the source holds several entries; their conditions need not be identical. Equal entries are not always repeated.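 Test compounds were applied to cells in 96-well plates for 48 hours at 5 doses. Here, GI50 denotes the concentration required for 50% inhibition of growth. TGI denotes the concentration required for complete inhibition of growth.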
# Legend:
# Assay in all cases: growth of human tumour cells (NCI), 48 h
# [1] = test system: M14 melanoma
# [2] = test system: SK-MEL-5 melanoma
# [3] = test system: CCRF-CEM leukemia
# [4] = test system: NCI-H460 lung
# [5] = test system: IGROV1 ovarian
# [6] = test system: COLO 205 colon
# [7] = test system: OVCAR-5 ovarian
# [8] = test system: MDA-MB-231 breast
# [9] = test system: EKVX NSCLC
Structure (SMILES),TGI [1],TGI [2],TGI [3] [µM],TGI [4],TGI [5],TGI [6],TGI [7],TGI [8],TGI [9],GI50 [1],GI50 [2] [µM],GI50 [3] [µM],GI50 [4],GI50 [5],GI50 [7] [µM],GI50 [8] [µM],GI50 [9] [µM],GI50 [6]
CCOC(=O)/C(C#N)=C(/NNc1ccccc1)c1ccncc1C(=O)O,> 100 µM,> 48.9 µM,> 100,> 100 µM,> 100 µM,22.5 µM,> 100 µM,> 100 µM,> 100 µM,–,–,–,–,–,–,–,–,–
Cc1cc(S(=O)(=O)Nc2nc3ccccc3n2-c2ccccc2)c(S)cc1Cl,> 100 µM,> 100 µM,> 100,> 100 µM,> 100 µM,> 100 µM,> 100 µM,> 100 µM,> 100 µM,–,–,–,–,–,–,–,–,–
Cc1nn(C)c2nc3ccc(Cl)cc3c(-c3ccccc3)c12,> 100 µM,–,> 100,> 100 µM,–,> 100 µM,> 100 µM,> 100 µM,> 100 µM,–,–,–,–,–,–,–,–,–
COc1cc(OC)cc(-c2n/c(=C\c3c(O)[nH]c4ccc(Cl)cc34)cc3c2=Nc2ccccc2-3)c1,13.7 µM,62.5 µM,> 100,10.5 µM,10.1 µM,–,63.8 µM,13.4 µM,37.8 µM,4.01 µM,17.7,3.34,3.26 µM,3.46 µM,20.5,2.84,13.6,–
CC(C)(C)c1cc(C(=O)/C=C/c2ccn[nH]2)cc(C(C)(C)C)c1O,3.51 µM,20.1 µM,5.97,8.6 µM,3.97 µM,4.98 µM,13.6 µM,3.97 µM,28.4 µM,–,–,–,–,–,–,–,–,–
CCOC(=O)C(NC(=O)CC)(Nc1ccc(S(=O)(=O)Nc2nc(C)cc(C)n2)cc1)C(F)(F)F (centres undefined),> 100 µM,> 100 µM,> 100,> 100 µM,> 100 µM,> 100 µM,> 100 µM,> 100 µM,> 100 µM,–,–,–,–,–,–,–,–,–
CC(C)(C)OC(=O)NCC(=O)NC1C/C(=N\O)c2sccc21 (centres undefined),> 100 µM,> 100 µM,> 100,> 100 µM,> 100 µM,> 100 µM,> 100 µM,> 100 µM,> 100 µM,–,–,–,–,–,–,–,–,–
CC(C)C(C/C=C1/CC(CO)(COC(=O)C2CCCCC2)OC1=O)C(C)C (centres undefined),38.8 µM,> 100 µM,63.2,89.6 µM,34.2 µM,20.9 µM,40.7 µM,37.4 µM,42.8 µM,–,–,–,–,–,–,–,–,–
O=S1(=O)C(c2ccccc2)=C(O)c2ccccc21,> 100 µM,> 100 µM,> 100,> 100 µM,> 100 µM,> 100 µM,> 100 µM,> 100 µM,> 100 µM,–,–,–,–,–,–,–,–,–
COc1cc(C(c2cccc3ccccc23)N2C(=O)CCC2C(=O)NCc2ccccc2)cc(OC)c1OC (centres undefined),> 100 µM,> 100 µM,> 100,> 100 µM,> 100 µM,> 100 µM,> 100 µM,> 100 µM,> 100 µM,–,–,–,–,–,–,–,–,–
COC(=O)/C=C/c1cc(OC)c2oc(-c3ccc(OC)c(OC)c3)c(C(=O)OC)c2c1,> 100 µM,> 100 µM,> 100,> 100 µM,> 100 µM,> 100 µM,> 100 µM,> 100 µM,> 100 µM,–,–,–,–,–,–,–,–,–
Nc1ccc(-c2nc3ccc(F)cc3s2)cc1,> 100 µM,37.8 µM,> 100,> 100 µM,71.9 µM,33.2 µM,73.6 µM,64 µM,> 100 µM,–,–,–,24.4 µM,21.3 µM,27.2,–,–,–
CN(CCc1ccc(Cl)c(Cl)c1)CCN(C)CCN1CCCC1,9.88 µM,7.75 µM,14.6,25.7 µM,43.7 µM,5.3 µM,43.3 µM,23 µM,35.5 µM,–,–,–,–,–,–,–,–,–
Oc1nc(N/N=C/c2ccccc2)[nH]c1/C=C1\C=Nc2ccccc21,> 100 µM,> 100 µM,74.3,> 100 µM,> 100 µM,> 100 µM,> 100 µM,> 100 µM,> 100 µM,–,–,–,–,–,–,–,–,–
CCNc1ncnc2c1nnn2CC,> 100 µM,> 100 µM,> 100,–,> 100 µM,> 100 µM,–,> 100 µM,> 100 µM,–,–,–,–,–,–,–,–,–
O=C(N/N=C/c1ccc(Cl)cc1)c1cc(I)cc(I)c1O,> 100 µM,> 100 µM,> 100,–,> 100 µM,> 100 µM,> 100 µM,> 100 µM,> 100 µM,–,–,–,–,–,–,–,–,–
Cc1c(C#N)c2nnn(-c3ccccc3)c(=O)n2c1-c1ccccc1,> 35.6 µM,16.5 µM,> 20.7,> 76.6 µM,> 100 µM,3.41 µM,> 100 µM,> 100 µM,> 34.5 µM,–,–,–,–,–,–,–,–,–
Cc1ccc(OCC2OC(n3cnc4c(Cl)ncnc43)CC2Oc2ccc(C)cc2)cc1 (centres undefined),6.61 µM and 22.6 µM,30.5 µM and 34.9 µM,> 40,18.3 µM and > 48.5 µM,5.88 µM and 14 µM,19.4 µM and 74.4 µM,68.5 µM and > 79.7 µM,17.8 µM and 30.6 µM,7.18 µM and 10.2 µM,2.75 µM and 7.3 µM,–,–,3.71 µM and 13.4 µM,2.43 µM and 5.87 µM,–,–,–,6.45 µM and 20.8 µM
Cc1cc(C)c2c(=N)c3ccccc3n(CCCCCCO)c2n1,16.6 µM,8.16 µM,9.64,3.62 µM,10.9 µM,2.84 µM,21.2 µM,15.1 µM,6.33 µM,–,–,–,–,–,–,–,–,–
COc1cc(/C=C2\Cc3cc(OC)c(OC)cc3C2=O)cc(OC)c1,> 100 µM,> 100 µM,> 100,74.7 µM,> 100 µM,> 100 µM,> 100 µM,> 100 µM,> 100 µM,–,–,–,–,–,–,–,–,–
OC(CCN1CCN(CCOC(c2ccccc2)c2ccccc2)CC1)c1ccc(Br)cc1 (centres undefined),11.2 µM,12.6 µM,45.3,26 µM,24.7 µM,3.38 µM,28.3 µM,25.3 µM,23.5 µM,–,–,–,–,–,–,–,–,–
Cn1c2c(c3ccccc31)CCN1C(=O)C3SC21C1C(=O)N(c2ccccc2)C(=O)C31 (centres undefined),> 100 µM,> 73.4 µM,> 100,> 100 µM,> 100 µM,> 100 µM,> 100 µM,> 100 µM,> 100 µM,–,–,53.4,90.6 µM,–,–,–,–,–
